Reference: patent US20060241108A1, “Substituted phenoxazines and acridones as inhibitors of AKT” (St. Jude Children's Research Hospital, priority 2005, published 2006)

Columns and labels:
AKT1ΔPH = biological target: T1, AKT1ΔPH (Homo sapiens, UniProt P31749); assay: In vitro kinase assay with recombinant AKT lacking the pleckstrin homology domain; type: biochemical; conditions: AKTΔPH versus full-length AKT
T1 construct: purchased Upstate Biotechnology
Procedure: In vitro inhibition of recombinant AKT. In vitro kinase assays can be performed using an active, recombinant, full length AKT1/PKBα protein (available from Upstate Biotechnology, Lake Placid, N.Y.) or with an active, recombinant AKT1/PKBα protein, referred to herein as AKT1ΔPH, that lacks the pleckstrin homology domain (also available from Upstate Biotechnology). 10 ng of the recombinant enzyme in 25 μl 1× kinase buffer (25 mM Tris, pH 7.5; 5 mM β-glycerol phosphate; 2 mM dithiothreitol; 0.1 mM Na3VO4; and 10 mM MgCl2) is mixed with 2.5 μl of DMSO and a test compound (5 μM). Samples are incubated on ice for 1 hour, at which time 1 μg of GSK-3 fusion protein (Cell Signaling Technology, Beverly, Mass., catalog #9278) is added followed by ATP (200 μM) to each reaction mixture. After incubating the suspensions at 30° C. for 30 minutes, the reaction can be terminated by the addition of 3×SDS sample buffer (187.5 mM Tris-HCl, pH 6.8; 6% SDS; 30% glycerol; 150 mM dithiothreitol; and 0.03% bromophenol blue). The samples are then boiled for five minutes. The proteins can be separated on a 12% SDS polyacrylamide gel, and subsequently transferred to a nitrocellulose membrane. The membranes are preferably incubated with rabbit polyclonal anti-phospho-GSK-3α/β (Ser21/9) antibody (available from Cell Signaling Technology, Beverly, Mass., catalog # 9331). […]

Rh30 cells = assay: Determination of apoptosis (Annexin V-FITC/propidium iodide flow cytometry), Rh30 cells; conditions: Rh30, 7.5 μM, four days, n = 3
Procedure: Determination of apoptosis. An ApoAlert™ Annexin V-FITC Apoptosis kit (available from Clontech, Palo Alto, Calif.) can be used to evaluate the extent of apoptosis within cell populations. Cells (Rh1: 350,000 per 75-cm^2 flask; Rh18: 800,000 per 75-cm^2 flask; or Rh30: 500,000 per 75-cm^2 flask) are preferably grown overnight in complete medium. On day 1, cells are treated with DMSO (0.1%; vehicle control) or with a test compound (e.g., a phenoxazine or acridone compound). After 4 days, the cells are trypsinized, washed with PBS, and resuspended in 200 μl of binding buffer. Cells are then incubated with 10 μl of annexin V-FITC (final concentration, 1 μg/ml) and 500 ng of propidium iodide in a final volume of 410 μl. Cells are preferably incubated at room temperature in the dark for ten minutes before flow cytometric analysis with an FACSCalibur™ Flow Cytometry System (Becton Dickinson, San Jose, Calif.).
For instance, Rh1, Rh18 and/or Rh30 cells can be grown in complete medium with 0.1% DMSO (as a negative control) or with one or more test compounds, e.g., any of the phenoxazine compounds listed in Table I, above, including but not limited to the compounds 10B, 11B, 13B, 14B or 15B. […] Cells are then harvested, and the extent of apoptosis evaluated, e.g., by an ApoAlert™ (Clontech, Palo Alto, Calif.) flow cytometric assay.

AKT = assay: Translocation of AKT from cytoplasm to nucleus in Rh1 cells, confocal microscopy; type: cell-based, human; conditions: 5 μM, 1 hour, IGF-1 10 ng/ml 20 minutes
Procedure: Translocation of AKT in Rh1 cells. Rh1 cells (2×10^5 per chamber) can be grown on 2-well glass chamber slides (available from Falcon, Franklin Lakes, N.J.) in serum-free medium containing fibronectin (10 μg/ml). Preferably after twenty hours, the cells are exposed to DMSO (0.1%, vehicle control) or test compound (e.g., 5 μM of phenoxazine or acridone compound) for one hour and then stimulated with IGF-I (10 ng/ml) for 20 minutes. Cells are preferably washed twice with PBS and fixed in 4% formaldehyde for 30 minutes at room temperature. The samples are then rinsed twice with PBS and permeabilized with 1% Triton X-100 for five minutes at room temperature. After rinsing twice with PBS, the cells are incubated with an anti-AKT antibody (available from Rockland, West Chester, Pa.) (1:50 dilution) for 45 minutes at 37° C. […] After rinsing twice with PBS, the slides can be mounted in media containing TOPRO-3 (also available from Molecular Probes) and analyzed by routine confocal microscopy.
Upon activation, AKT translocates to the nucleus (see, e.g., Biggs et al. Proc. Natl. Acad. Sci. USA 1999;96:7421-7426; Brownawell et al. Mol. Cell. Biol. 2001;21:3534-3546; Brunet et al. Cell 1999;96:857-868; and Rena et al. J. Biol. Chem. 1999;274:17179-17183). […] Cellular localization of AKT may then be assessed, e.g. by confocal microscopy.

T1 sequence (P31749 118-480 limits assumed, stated change not applied): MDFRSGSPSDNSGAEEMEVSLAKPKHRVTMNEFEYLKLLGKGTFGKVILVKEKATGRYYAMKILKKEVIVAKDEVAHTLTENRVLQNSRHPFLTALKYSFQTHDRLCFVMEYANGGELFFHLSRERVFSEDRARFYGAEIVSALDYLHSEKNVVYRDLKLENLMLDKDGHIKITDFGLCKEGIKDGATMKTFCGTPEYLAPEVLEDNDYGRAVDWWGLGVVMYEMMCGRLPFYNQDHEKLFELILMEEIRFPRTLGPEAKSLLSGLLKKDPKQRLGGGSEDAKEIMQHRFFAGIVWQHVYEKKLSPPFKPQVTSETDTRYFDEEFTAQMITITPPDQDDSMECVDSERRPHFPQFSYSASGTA

Compound	ability to inhibit AKT kinase activity after deletion of the PH domain (AKT1ΔPH)	Percentage of cells ± SD, Apoptotic (Rh30 cells) [%]	nuclear localization of AKT (AKT)	Percentage of cells ± SD, Viable (Rh30 cells) [%]
10-[4′-[(β-hydroxyethyl)piperazino]butyl]-2-chlorophenoxazine [Compound 15B]	unaffected by deletion of the PH domain	88.67 ± 1.69	block in nuclear localization occurs	–
CCN(CC)CCCCN1c2ccccc2Oc2ccc(Cl)cc21 [Compound 10B, 10-[4′-(N-diethylamino)butyl]-2-chlorophenoxazine]	unaffected by deletion of the PH domain	43.00 ± 2.17	block in nuclear localization occurs	56.67 ± 2.62
